In US20220259655A1, “METHODS FOR ASSESSING THE RISK OF DEVELOPING SEVERE CUTANEOUS ADVERSE DRUG REACTIONS INDUCED BY DISEASE-MODIFYING ANTIRHEUMATIC DRUGS, DETECTION KIT THEREOF AND USES THEREOF” (CHANG GUNG MEMORIAL HOSPITAL, LINKOU, priority 2019, published 2022):
Like-named read-outs stand apart in the source and are kept apart here.

Assays:
[1] = target: HLA-B*3802 allele (Homo sapiens, UniProt P01889, A182T/A93T/A95T/C349S/D138N/D201E/D98Y/E176V/E187T/E204Q/G107R/K202T/L105A/N104T/Q94N/R106L/R155S/R180L/S101N/S121R/Y140F/Y91C); details: HLA-B*38:02
[2] = target: HLA-B*1502 allele (Homo sapiens, UniProt P01889, A329T/A93T/A95T/C349S/D201E/D98Y/E187L/E204Q/E69M/E70A/H137Y/K202T/L119I/Q94N/R155S/R180L/S121R/S35A/S48A/T118I/V306I/V36M/Y140S/Y91S); details: HLA-B*15:02
[3] = target: HLA-B*1301 allele (Homo sapiens, UniProt P01889, A65T/A93T/A95T/D138N/D201E/D98Y/E176V/E204Q/E69M/E70A/G107R/K202T/L105A/L119I/N104T/N87E/Q94N/R106L/R155S/R169L/R180L/S101N/S121R/S35A/S48T/T118I/V127L/V36M/Y140L/Y91S); details: HLA-B*13:01
[4] = system: combination of HLA-B*1502 allele and HLA-B*3802 allele; details: in vivo
[5] = system: combination of HLA-B*1301 allele, HLA-B*1502 allele, HLA-B*3802 allele and HLA-B*3901 allele; details: in vivo
[6] = system: combination of HLA-B*1301 allele, HLA-B*3802 allele and HLA-B*3901 allele; details: in vivo
[7] = patients taking sulfasalazine; clinical setting; cited from earlier work
[8] = system: combination of HLA-B*1301 allele and HLA-B*3901 allele; details: in vivo
[9] = target: HLA-B*3901 allele (Homo sapiens, UniProt P01889, A182T/A93T/A95T/C349S/D138N/D201E/E176V/E187T/E204Q/K202T/Q94N/R155S/R180L/S121R/Y140F/Y91C); details: HLA-B*39:01
[10] = Sulfasalazine-DRESS vs healthy control
[11] = Sulfasalazine-SCAR vs healthy control
[12] = Sulfasalazine-SJS/TEN patients, listed as sulfasalazine
[13] = Sulfasalazine-SJS/TEN vs healthy control
[14] = Sulfasalazine-SJS/TEN vs healthy control, listed as sulfasalazine
[15] = Sulfasalazine-DRESS patients, listed as sulfasalazine
[16] = Sulfasalazine-DRESS vs healthy control, listed as sulfasalazine

O=C(O)c1cc(/N=N/c2ccc(S(=O)(=O)Nc3ccccn3)cc2)ccc1O [Sulfasalazine]
Sensitivity (%) ([1]; Sulfasalazine-DRESS): 0%
Specificity (%) ([1]; Sulfasalazine-DRESS): 92.45%
SCAR N (%) carrying the allele ([1]; Sulfasalazine-DRESS patients): 0/21
Odds Ratio (95% CI) [1, 10]: 0.3
Sensitivity (%) ([1]; Sulfasalazine-SCAR): 18.75%
Specificity (%) ([1]; Sulfasalazine-SCAR): 92.45%
SCAR N (%) carrying the allele ([1]; Sulfasalazine-SCAR patients): 6/32
Odds Ratio (95% CI) [1, 11]: 2.8
Sensitivity (%) ([1]; Sulfasalazine-SJS/TEN): 54.54%
Specificity (%) ([1]; Sulfasalazine-SJS/TEN): 92.45%
SCAR N (%) carrying the allele ([1]; Sulfasalazine-SJS/TEN patients): 6/11
SCAR N (%) carrying the allele [1, 12]: 6 out of 11
Odds Ratio (95% CI) [1, 13]: 14.7
Odds Ratio (95% CI) [1, 14]: 14.7 (4.4-49.4)
Sensitivity (%) ([2]; Sulfasalazine-DRESS): 9.53%
Specificity (%) ([2]; Sulfasalazine-DRESS): 90.75%
SCAR N (%) carrying the allele ([2]; Sulfasalazine-DRESS patients): 2/21
Odds Ratio (95% CI) [2, 10]: 1.0
Sensitivity (%) ([2]; Sulfasalazine-SCAR): 21.88%
Specificity (%) ([2]; Sulfasalazine-SCAR): 90.75%
SCAR N (%) carrying the allele ([2]; Sulfasalazine-SCAR patients): 7/32
Odds Ratio (95% CI) [2, 11]: 2.7
Sensitivity (%) ([2]; Sulfasalazine-SJS/TEN): 45.45%
Specificity (%) ([2]; Sulfasalazine-SJS/TEN): 90.75%
SCAR N (%) carrying the allele ([2]; Sulfasalazine-SJS/TEN patients): 5/11
SCAR N (%) carrying the allele [2, 12]: 5 out of 11
Odds Ratio (95% CI) [2, 13]: 8.2
Odds Ratio (95% CI) [2, 14]: 8.2 (2.4-27.4)
Sensitivity (%) ([3]; Sulfasalazine-DRESS): 38.10%
Specificity (%) ([3]; Sulfasalazine-DRESS): 87.89%
SCAR N (%) carrying the allele ([3]; Sulfasalazine-DRESS patients): 8/21
SCAR N (%) carrying the allele [3, 15]: 8 of 21
Odds Ratio (95% CI) [3, 10]: 4.5
Odds Ratio (95% CI) [3, 16]: 4.5 (1.8-11.0)
Sensitivity (%) ([3]; Sulfasalazine-SCAR): 28.13%
Specificity (%) ([3]; Sulfasalazine-SCAR): 87.89%
SCAR N (%) carrying the allele ([3]; Sulfasalazine-SCAR patients): 9/32
Odds Ratio (95% CI) [3, 11]: 2.8
Sensitivity (%) ([3]; Sulfasalazine-SJS/TEN): 9.09%
Specificity (%) ([3]; Sulfasalazine-SJS/TEN): 87.89%
SCAR N (%) carrying the allele ([3]; Sulfasalazine-SJS/TEN patients): 1/11
Odds Ratio (95% CI) [3, 13]: 0.7
Specificity (%) [4]: 83.74%
SCAR N (%) carrying the alleles [5]: 24/32
Sensitivity (%) [5]: 75.00%
Specificity (%) [5]: 60.35%
SCAR N (%) carrying the alleles [6]: 22/32
Sensitivity (%) [6]: 68.75%
Specificity (%) [6]: 78.32%
patients developing obvious side effects [7]: Approximately 25%
Specificity (%) [8]: 83.95%
Sensitivity (%) ([9]; Sulfasalazine-DRESS): 38.10%
Specificity (%) ([9]; Sulfasalazine-DRESS): 95.43%
SCAR N (%) carrying the allele ([9]; Sulfasalazine-DRESS patients): 8/21
SCAR N (%) carrying the allele [9, 15]: 8 of 21
Odds Ratio (95% CI) [9, 10]: 12.2
Odds Ratio (95% CI) [9, 16]: 12.2 (4.6-32.5)
Sensitivity (%) ([9]; Sulfasalazine-SCAR): 28.13%
Specificity (%) ([9]; Sulfasalazine-SCAR): 95.43%
SCAR N (%) carrying the allele ([9]; Sulfasalazine-SCAR patients): 9/32
Odds Ratio (95% CI) [9, 11]: 8.2
Sensitivity (%) ([9]; Sulfasalazine-SJS/TEN): 0%
Specificity (%) ([9]; Sulfasalazine-SJS/TEN): 95.43%
SCAR N (%) carrying the allele ([9]; Sulfasalazine-SJS/TEN patients): 0/11
Odds Ratio (95% CI) [9, 13]: 1.1
